{"source": "patent US6358885B1", "about": "“Substituted phenylheterocyclic herbicides” (Mississippi State University, priority 1992, dated 2002)", "experiment_in_all_cases": "Test G preemergence/postemergence greenhouse plant response rating 0 to 100", "key": {"itchgrass": {"tested_on": "itchgrass", "type": "in vivo, Rottboellia exaltata", "conditions": "0 to 100 scale", "description": "(§1) Seeds, rhizomes, or plant parts of alfalfa (Medicago ativa), annual bluegrass (Poa annua), bermudagrass (Cynodon dactylon), broadleaf signalgrass (Brachiaria plantaginea), common purslane (Portulaca oleracea), common ragweed (Ambrosia elatior), […] (Paspalum dilatatum), goosegrass (Eleusine indica), guineagrass (Panicum maximum), […] exaltata), johnsongrass (Sorghum halepense), large crabgrass (Digitaria sanguinalis), peanut (Arachis hypoagaea), pitted morningglory (Ipomoea lacunosa), purple nutsedge (Cyperus rotundus), sandbur (Cenchrus echinatus), smooth crabgrass (Digitaria ischaemum) and yellow nutsedge (Cyperus esculentus) were planted into greenhouse pots containing greenhouse planting medium. Each pot contained only one plant species. The test compound was dissolved in a non-phytotoxic solvent and applied preemergence and/or postemergence to the plants. Preemergence applications were made within one day of planting the seeds or plant parts. Postemergence applications were applied when the plants were in the two to four leaf stage (three to twenty cm). Test chemicals were dissolved in a non-phytotoxic solvent and applied preemergence and postemergence to the plants. Untreated control plants and treated plants were placed in the greenhouse and visually evaluated for injury at 13 to 21 days after herbicide application. […] A dash (-) response indicates no test result."}, "common purslane": {"tested_on": "common purslane", "type": "in vivo, Portulaca oleracea", "conditions": "0 to 100 scale", "description": "as §1"}, "guineagrass": {"tested_on": "guineagrass", "type": "in vivo, Panicum maximum", "conditions": "0 to 100 scale", "description": "as §1"}, "johnsongrass": {"tested_on": "johnsongrass", "type": "in vivo, Sorghum halepense", "conditions": "0 to 100 scale", "description": "as §1"}, "peanut": {"tested_on": "peanut", "type": "in vivo, Arachis hypoagaea", "conditions": "0 to 100 scale", "description": "as §1"}, "alfalfa": {"tested_on": "alfalfa", "type": "in vivo, Medicago ativa", "conditions": "0 to 100 scale", "description": "as §1"}, "sandbur": {"tested_on": "sandbur", "type": "in vivo, Cenchrus echinatus", "conditions": "0 to 100 scale", "description": "as §1"}, "broadleaf signalgrass": {"tested_on": "broadleaf signalgrass", "type": "in vivo, Brachiaria plantaginea", "conditions": "0 to 100 scale", "description": "as §1"}, "annual bluegrass": {"tested_on": "annual bluegrass", "type": "in vivo, Poa annua", "conditions": "0 to 100 scale", "description": "as §1"}, "pitted morningglory": {"tested_on": "pitted morningglory", "type": "in vivo, Ipomoea lacunosa", "conditions": "0 to 100 scale", "description": "as §1"}, "yellow nutsedge": {"tested_on": "yellow nutsedge", "type": "in vivo, Cyperus esculentus", "conditions": "Rate 125 g/ha, 0 to 100 scale", "description": "as §1"}, "common ragweed": {"tested_on": "common ragweed", "type": "in vivo, Ambrosia elatior", "conditions": "0 to 100 scale", "description": "as §1"}, "smooth crabgrass": {"tested_on": "smooth crabgrass", "type": "in vivo, Digitaria ischaemum", "conditions": "0 to 100 scale", "description": "as §1"}, "large crabgrass": {"tested_on": "large crabgrass", "type": "in vivo, Digitaria sanguinalis", "conditions": "0 to 100 scale", "description": "as §1"}, "goosegrass": {"tested_on": "goosegrass", "type": "in vivo, Eleusine indica", "conditions": "0 to 100 scale", "description": "as §1"}, "bermudagrass": {"tested_on": "bermudagrass", "type": "in vivo, Cynodon dactylon", "conditions": "0 to 100 scale", "description": "as §1"}}}
{"smiles": "C#CCN1C(=O)COc2cc(F)c(-c3nn4c(c3Cl)CCCC4)cc21", "note": "[Compound 34]", "values": [{"measurement": "Plant response rating, Itchgrass", "setting": "itchgrass; POSTEMERGENCE, Rate 125 g/ha", "value": 0}, {"measurement": "Plant response rating, Itchgrass", "setting": "itchgrass; POSTEMERGENCE, Rate 250 g/ha", "value": 0}, {"measurement": "Plant response rating, Itchgrass", "setting": "itchgrass; PREEMERGENCE, Rate 125 g/ha", "value": 0}, {"measurement": "Plant response rating, Itchgrass", "setting": "itchgrass; PREEMERGENCE, Rate 250 g/ha", "value": 20}, {"measurement": "Plant response rating, Cmn Purslane", "setting": "common purslane; POSTEMERGENCE, Rate 125 g/ha", "value": 100}, {"measurement": "Plant response rating, Cmn Purslane", "setting": "common purslane; POSTEMERGENCE, Rate 250 g/ha", "value": 100}, {"measurement": "Plant response rating, Cmn Purslane", "setting": "common purslane; PREEMERGENCE, Rate 125 g/ha", "value": 0}, {"measurement": "Plant response rating, Cmn Purslane", "setting": "common purslane; PREEMERGENCE, Rate 250 g/ha", "value": 100}, {"measurement": "Plant response rating, Guineagrass", "setting": "guineagrass; POSTEMERGENCE, Rate 125 g/ha", "value": 0}, {"measurement": "Plant response rating, Guineagrass", "setting": "guineagrass; POSTEMERGENCE, Rate 250 g/ha", "value": 0}, {"measurement": "Plant response rating, Guineagrass", "setting": "guineagrass; PREEMERGENCE, Rate 125 g/ha", "value": 0}, {"measurement": "Plant response rating, Guineagrass", "setting": "guineagrass; PREEMERGENCE, Rate 250 g/ha", "value": 0}, {"measurement": "Plant response rating, Johnsongrass", "setting": "johnsongrass; POSTEMERGENCE, Rate 125 g/ha", "value": 0}, {"measurement": "Plant response rating, Johnsongrass", "setting": "johnsongrass; POSTEMERGENCE, Rate 250 g/ha", "value": 0}, {"measurement": "Plant response rating, Johnsongrass", "setting": "johnsongrass; PREEMERGENCE, Rate 125 g/ha", "value": 0}, {"measurement": "Plant response rating, Johnsongrass", "setting": "johnsongrass; PREEMERGENCE, Rate 250 g/ha", "value": 0}, {"measurement": "Plant response rating, Peanuts", "setting": "peanut; POSTEMERGENCE, Rate 125 g/ha", "value": 30}, {"measurement": "Plant response rating, Peanuts", "setting": "peanut; POSTEMERGENCE, Rate 250 g/ha", "value": 0}, {"measurement": "Plant response rating, Peanuts", "setting": "peanut; PREEMERGENCE, Rate 125 g/ha", "value": 0}, {"measurement": "Plant response rating, Peanuts", "setting": "peanut; PREEMERGENCE, Rate 250 g/ha", "value": 0}, {"measurement": "Plant response rating, Alfalfa Var.", "setting": "alfalfa; POSTEMERGENCE, Rate 125 g/ha", "value": 40}, {"measurement": "Plant response rating, Alfalfa Var.", "setting": "alfalfa; POSTEMERGENCE, Rate 250 g/ha", "value": 60}, {"measurement": "Plant response rating, Alfalfa Var.", "setting": "alfalfa; PREEMERGENCE, Rate 125 g/ha", "value": 0}, {"measurement": "Plant response rating, Alfalfa Var.", "setting": "alfalfa; PREEMERGENCE, Rate 250 g/ha", "value": 100}, {"measurement": "Plant response rating, S. Sandbur", "setting": "sandbur; POSTEMERGENCE, Rate 125 g/ha", "value": 0}, {"measurement": "Plant response rating, S. Sandbur", "setting": "sandbur; POSTEMERGENCE, Rate 250 g/ha", "value": 0}, {"measurement": "Plant response rating, S. Sandbur", "setting": "sandbur; PREEMERGENCE, Rate 125 g/ha", "value": 0}, {"measurement": "Plant response rating, S. Sandbur", "setting": "sandbur; PREEMERGENCE, Rate 250 g/ha", "value": 0}, {"measurement": "Plant response rating, Brdlf Sgnlgrass", "setting": "broadleaf signalgrass; POSTEMERGENCE, Rate 125 g/ha", "value": 0}, {"measurement": "Plant response rating, Brdlf Sgnlgrass", "setting": "broadleaf signalgrass; POSTEMERGENCE, Rate 250 g/ha", "value": 0}, {"measurement": "Plant response rating, Brdlf Sgnlgrass", "setting": "broadleaf signalgrass; PREEMERGENCE, Rate 125 g/ha", "value": 0}, {"measurement": "Plant response rating, Brdlf Sgnlgrass", "setting": "broadleaf signalgrass; PREEMERGENCE, Rate 250 g/ha", "value": 0}, {"measurement": "Plant response rating, Ann Bluegrass", "setting": "annual bluegrass; POSTEMERGENCE, Rate 125 g/ha", "value": 0}, {"measurement": "Plant response rating, Ann Bluegrass", "setting": "annual bluegrass; POSTEMERGENCE, Rate 250 g/ha", "value": 0}, {"measurement": "Plant response rating, Ann Bluegrass", "setting": "annual bluegrass; PREEMERGENCE, Rate 125 g/ha", "value": 0}, {"measurement": "Plant response rating, Ann Bluegrass", "setting": "annual bluegrass; PREEMERGENCE, Rate 250 g/ha", "value": 50}, {"measurement": "Plant response rating, Pit Morninglory", "setting": "pitted morningglory; POSTEMERGENCE, Rate 125 g/ha", "value": 30}, {"measurement": "Plant response rating, Pit Morninglory", "setting": "pitted morningglory; POSTEMERGENCE, Rate 250 g/ha", "value": 50}, {"measurement": "Plant response rating, Pit Morninglory", "setting": "pitted morningglory; PREEMERGENCE, Rate 125 g/ha", "value": 0}, {"measurement": "Plant response rating, Pit Morninglory", "setting": "pitted morningglory; PREEMERGENCE, Rate 250 g/ha", "value": 30}, {"measurement": "Plant response rating, Yellow Nutsedge", "setting": "yellow nutsedge; POSTEMERGENCE", "value": 0}, {"measurement": "Plant response rating, Yellow Nutsedge", "setting": "yellow nutsedge; PREEMERGENCE", "value": 0}, {"measurement": "Plant response rating, Cmn Ragweed", "setting": "common ragweed; POSTEMERGENCE, Rate 125 g/ha", "value": 70}, {"measurement": "Plant response rating, Cmn Ragweed", "setting": "common ragweed; POSTEMERGENCE, Rate 250 g/ha", "value": 100}, {"measurement": "Plant response rating, Cmn Ragweed", "setting": "common ragweed; PREEMERGENCE, Rate 125 g/ha", "value": 0}, {"measurement": "Plant response rating, Cmn Ragweed", "setting": "common ragweed; PREEMERGENCE, Rate 250 g/ha", "value": 0}, {"measurement": "Plant response rating, Smooth Crabgras", "setting": "smooth crabgrass; POSTEMERGENCE, Rate 125 g/ha", "value": 0}, {"measurement": "Plant response rating, Smooth Crabgras", "setting": "smooth crabgrass; POSTEMERGENCE, Rate 250 g/ha", "value": 0}, {"measurement": "Plant response rating, Smooth Crabgras", "setting": "smooth crabgrass; PREEMERGENCE, Rate 125 g/ha", "value": 0}, {"measurement": "Plant response rating, Smooth Crabgras", "setting": "smooth crabgrass; PREEMERGENCE, Rate 250 g/ha", "value": 80}, {"measurement": "Plant response rating, Large Crabgrass", "setting": "large crabgrass; POSTEMERGENCE, Rate 125 g/ha", "value": 0}, {"measurement": "Plant response rating, Large Crabgrass", "setting": "large crabgrass; POSTEMERGENCE, Rate 250 g/ha", "value": 0}, {"measurement": "Plant response rating, Large Crabgrass", "setting": "large crabgrass; PREEMERGENCE, Rate 125 g/ha", "value": 0}, {"measurement": "Plant response rating, Large Crabgrass", "setting": "large crabgrass; PREEMERGENCE, Rate 250 g/ha", "value": 60}, {"measurement": "Plant response rating, Goosegrass", "setting": "goosegrass; POSTEMERGENCE, Rate 125 g/ha", "value": 0}, {"measurement": "Plant response rating, Goosegrass", "setting": "goosegrass; POSTEMERGENCE, Rate 250 g/ha", "value": 0}, {"measurement": "Plant response rating, Goosegrass", "setting": "goosegrass; PREEMERGENCE, Rate 125 g/ha", "value": 0}, {"measurement": "Plant response rating, Goosegrass", "setting": "goosegrass; PREEMERGENCE, Rate 250 g/ha", "value": 30}, {"measurement": "Plant response rating, Bermudagrass", "setting": "bermudagrass; POSTEMERGENCE, Rate 125 g/ha", "value": 0}, {"measurement": "Plant response rating, Bermudagrass", "setting": "bermudagrass; POSTEMERGENCE, Rate 250 g/ha", "value": 0}, {"measurement": "Plant response rating, Bermudagrass", "setting": "bermudagrass; PREEMERGENCE, Rate 125 g/ha", "value": 0}, {"measurement": "Plant response rating, Bermudagrass", "setting": "bermudagrass; PREEMERGENCE, Rate 250 g/ha", "value": 0}]}
